From patent US9862730B2, “Imidazothiadiazole derivatives as protease activated receptor 4 (PAR4) inhibitors for treating platelet aggregation” (BRISTOL-MYERS SQUIBB COMPANY, priority 2012, dated 2018) come the findings set out here.

Sequence of PAR4 (Q96RI0 18-385): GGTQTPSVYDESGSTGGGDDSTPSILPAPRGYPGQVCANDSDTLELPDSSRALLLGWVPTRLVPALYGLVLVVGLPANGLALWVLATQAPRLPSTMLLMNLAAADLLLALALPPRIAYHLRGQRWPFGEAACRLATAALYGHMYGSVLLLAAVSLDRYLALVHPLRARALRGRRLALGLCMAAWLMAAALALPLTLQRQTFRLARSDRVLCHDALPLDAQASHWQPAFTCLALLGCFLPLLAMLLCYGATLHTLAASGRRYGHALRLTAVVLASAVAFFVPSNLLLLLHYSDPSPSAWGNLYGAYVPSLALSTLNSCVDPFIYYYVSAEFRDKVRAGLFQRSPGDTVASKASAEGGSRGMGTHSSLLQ

For the assay, the target named is PAR4 (Homo sapiens (Human), UniProt Q96RI0). The assay is described as follows: FLIPR assay in PAR4-expressing HEK293 cells (PAR4 antagonist activity, calcium mobilization). The format is cell-based. The following applies: FLIPR assay as described in Example A. The text has this:
The FLIPR assay is an exemplary in vitro assay for measuring the activity of the PAR4 antagonists of the present invention. In this assay, intracellular calcium mobilization is induced in PAR4 expressing cells by a PAR4 agonist and calcium mobilization is monitored. See, e.g., Example A.
HEK293 cells stably expressing PAR4 were generated by a standard method of transfection of human […] cDNA expression vector or by RAGE technology from Athersys Inc. (Cleveland, Ohio) and selected based on PAR4 protein expression of mRNA expression. […] These cells express endogenous PAR1 and can elicit calcium signal upon stimulation with PAR1 agonist peptide.
Counter screens for agonist activity and PAR1 antagonist activity were also performed. Briefly, HEK293 EBNA PAR4 clone 20664.1J cells were plated 24 hrs. prior to experiment in 384 well, Poly-D-Lysine coated, black, clear bottom plates (Greiner Bio-One, Monroe, N.C.). Cells were plated at 20,000 cells/well in 20 μl growth medium and incubated at 37° C. with 5% CO2 overnight. At time of assay, media was replaced with 40 μl 1× Hank's Buffered Saline Solution (HBSS) (with 10 mM HEPES) and 20 μl test compound also diluted in 1×HBSS buffer was added at various concentrations and 0.67% DMSO final concentration on the FDSS for agonist measurement. The cells were then incubated for 30 minutes at room temperature followed by addition of 20 μl of agonist peptide for antagonist measurement on the FDSS.
As indicated above, the FLIPR assay, an in vitro assay, measures the PAR4 antagonist activity of compounds tested as described in Example A.
In the case of `CSc1nn2cc(-c3nc4ccccc4o3)nc2s1` [Example 110, 2-(2-(Methylthio)imidazo[2,1-b][1,3,4]thiadiazol-6-yl)benzo[d]oxazole], the IC50 came out at 213 nM.

With `COc1cc(COc2cccc(COc3cc(OC)cc4oc(-c5cn6nc(OC)sc6n5)cc34)c2)cc(OC)c1` [Example 390], the IC50 is 1.6 nM.

`COc1nn2cc(-c3cc4c(OCc5cccc(OCc6ccccc6)c5)cc(F)cc4o3)nc2s1` [Example 427]: the concentration for half-maximal inhibition (IC50) is 1.91 nM.

For `COc1nn2cc(-c3nc4cc(Cl)ccc4o3)nc2s1` [Example 130], the IC50 was 41.3 nM.

With `CC(F)(F)c1nn2cc(-c3nc4ccccc4s3)nc2s1` [Example 185, 2-(2-(1,1-Difluoroethyl)imidazo[2,1-b][1,3,4]thiadiazol-6-yl)benzo[d]thiazole], the half-inhibitory concentration (IC50) was determined as 626 nM.

Consider `COc1cc(OCc2cccc(OCc3cc(C(F)(F)F)ccc3C)c2)c2cc(-c3cn4nc(OC)sc4n3)oc2c1` [Example 396], for which the half-inhibitory concentration (IC50) amounted to 4.51 nM.

Turning to `CSc1nn2cc(-c3nc4ccc(OCc5ccccc5Cl)cc4o3)nc2s1` [Example 151], the IC50 amounted to 673 nM.

As to `COc1cc(OC)c2cc(-c3cn4nc(SC)sc4n3)oc2c1` [Example 229], the IC50 is 1.22 nM.

Consider `COc1cc2oc(-c3cn4nc([C@H](C)F)sc4n3)cc2cc1Cl` [270-1], for which the 50% inhibitory concentration (IC50) was 9.53 nM.

In the case of `CSc1nn2cc(-c3cc4c(C(=O)O)cccc4o3)nc2s1` [Example 219, 2-(2-(Methylthio)imidazo[2,1-b][1,3,4]thiadiazol-6-yl)benzofuran-4-carboxylic acid], the half-maximal inhibitory concentration (IC50) came out at 1280 nM.

As to `CC(F)(F)c1nn2cc(-c3cc4cccc(OC(F)(F)F)c4o3)nc2s1` [Example 240], the IC50 came out at 671 nM.

On to `CSc1nn2cc(-c3nc4ccc(OCc5ccccn5)cc4o3)nc2s1` [Example 117, 2-(2-(Methylthio)imidazo[2,1-b][1,3,4]thiadiazol-6-yl)-6-(pyridin-2-ylmethoxy)benzo[d]oxazole], for which the concentration for half-maximal inhibition (IC50) amounted to 654 nM.

As for `CC(F)(F)c1nn2cc(-c3nc4ccccc4o3)nc2s1` [Example 178], the IC50 came to 2340 nM.

Take `COc1cc(OCc2cccc(OCc3ccc(C)c(Cl)c3)c2)c2cc(-c3cn4nc(OC)sc4n3)oc2c1` [Example 324]: the half-inhibitory concentration (IC50) is 3.52 nM.

As to `CSc1nn2cc(-c3nc4cc(C)c(C)cc4o3)nc2s1` [Example 133], the IC50 stood at 19.7 nM.

Take `CCc1nn2cc(-c3cc4cccc(OC)c4o3)nc2s1` [Example 37]: the IC50 worked out at 8.51 nM.

Take `COc1nn2cc(-c3cc4c(OCc5ccccc5)cccc4o3)nc2s1` [Example 210, 6-(4-(Benzyloxy)benzofuran-2-yl)-2-methoxyimidazo[2,1-b][1,3,4]thiadiazole]: the half-maximal inhibitory concentration (IC50) was 24.5 nM.

On to `Fc1ccc2cc(-c3cn4nc(Br)sc4n3)oc2c1` [Example 264], for which the half-maximal inhibitory concentration (IC50) amounted to 37.8 nM.

With `CSc1nn2cc(-c3nc4c(OCc5ccncc5)cccc4o3)nc2s1` [Example 167], the half-maximal inhibitory concentration (IC50) is 785 nM.

Take `COc1ccc(Br)c2cc(-c3cn4nc(Br)sc4n3)oc12` [Example 285]: the IC50 was determined as 317 nM.

Consider `CSc1nn2cc(-c3nc4c(OC[C@@H]5CCCN5C(=O)[C@H](NC(=O)OC(C)(C)C)c5ccccc5)cccc4o3)nc2s1` [Example 334, tert-Butyl ((R)-2-((S)-2-(((2-(2-(methylthio)imidazo[2,1-b][1,3,4]thiadiazol-6-yl)benzo[d]oxazol-4-yl)oxy)methyl)pyrrolidin-1-yl)-2-oxo-1-phenylethyl)carbamate], for which the IC50 came out at 2360 nM.

As to `CSc1nn2cc(-c3nc4ccc(OCc5ccc(Cl)cc5)cc4o3)nc2s1` [Example 169], the IC50 was 70.5 nM.

Consider `COc1cc(OC)c2nc(-c3cn4nc(SC)sc4n3)oc2c1` [Example 177], for which the concentration for half-maximal inhibition (IC50) came out at 3.78 nM.

In the case of `COc1cc(OCc2ccccc2)c2nc(-c3cn4nc(OC)sc4n3)oc2c1` [Example 121, 4-(Benzyloxy)-6-methoxy-2-(2-methoxyimidazo[2,1-b][1,3,4]thiadiazol-6-yl)benzo[d]oxazole], the IC50 amounted to 13 nM.

Turning to `CC(F)(F)c1nn2cc(-c3nc4c(Cl)cccc4s3)nc2s1` [Example 198], the half-maximal inhibitory concentration (IC50) amounted to 4720 nM.

As to `CCc1nn2cc(-c3nc4ccc(OCc5ccc(Cl)cc5)cc4o3)nc2s1` [Example 83], the concentration for half-maximal inhibition (IC50) was 1010 nM.

For the compound `CSc1nn2cc(-c3nc4c(OCCN5CCOCC5)cccc4o3)nc2s1` [Example 168], the IC50 was 1150 nM.

In the case of `CSc1nn2cc(-c3nc4cc(F)ccc4s3)nc2s1` [Example 182, 5-Fluoro-2-(2-(methylthio)imidazo[2,1-b][1,3,4]thiadiazol-6-yl)benzo[d]thiazole], the IC50 was determined as 19.4 nM.

Consider `COc1cc(OCc2cccc(OCc3ccccc3C(F)(F)F)c2)c2cc(-c3cn4nc(OC)sc4n3)oc2c1` [Example 326], for which the IC50 turned out to be 3.36 nM.

Take `CCc1nn2cc(-c3nc4ccc(OCc5ccc(OC)cc5)cc4o3)nc2s1` [Example 84]: the concentration for half-maximal inhibition (IC50) was 101 nM.

Regarding `CSc1nn2cc(-c3nc4c(OCc5ccccc5)cccc4o3)nc2s1` [Example 148], the IC50 was found to be 224 nM.

For the compound `COc1cc2oc(-c3cn4nc(SC)sc4n3)cc2cc1Br` [Example 261], the IC50 is 4.53 nM.

`CCc1nn2cc(-c3nc4ccc(OCc5ccccc5Cl)cc4o3)nc2s1` [Example 81]: the IC50 is 507 nM.

Turning to `CC(F)c1nn2cc(-c3cc4ccc(F)cc4o3)nc2s1` (stereo not drawn) [Example 245], the IC50 was found to be 72.3 nM.

As to `Clc1nccc2oc(-c3cn4nc(Br)sc4n3)cc12` [Example 222, 2-(2-Bromoimidazo[2,1-b][1,3,4]thiadiazol-6-yl)-4-chlorofuro[3,2-c]pyridine], the IC50 was 464 nM.

As to `COc1nn2cc(-c3cc4ccc(OCc5ccccc5)cc4o3)nc2s1` [Example 104], the 50% inhibitory concentration (IC50) stood at 26.2 nM.

In the case of `CCc1nn2cc(-c3nc4ccc(OCc5cccc(Cl)c5)cc4o3)nc2s1` [Example 82], the IC50 was 66 nM.

On to `CCc1nn2cc(-c3nc4c(C)cccc4o3)nc2s1` [Example 42], for which the IC50 stood at 462 nM.

Take `CSc1nn2cc(-c3nc4ccc(OCc5cccnc5)cc4o3)nc2s1` [Example 145]: the IC50 is 286 nM.

As for `COCOc1cccc2oc(-c3cn4nc(SC)sc4n3)cc12` [Example 215, 6-(4-(Methoxymethoxy)benzofuran-2-yl)-2-(methylthio)imidazo[2,1-b][1,3,4]thiadiazole], the IC50 was found to be 16.7 nM.

As for `COc1nn2cc(-c3cc4ccc(F)cc4o3)nc2s1` [Example 96], the 50% inhibitory concentration (IC50) is 7.92 nM.

`CSc1nn2cc(-c3nc4ccc(OCc5cc(F)cc(F)c5)cc4o3)nc2s1` [Example 152]: the half-maximal inhibitory concentration (IC50) came out at 340 nM.

For `COc1cc(OCc2cccc(OCc3cncnc3)c2)c2cc(-c3cn4nc(OC)sc4n3)oc2c1` [Example 329], the IC50 was 71.6 nM.

Take `Cc1cc(C(F)(F)F)c2cc(-c3cn4nc(Br)sc4n3)oc2n1` [Example 306]: the half-maximal inhibitory concentration (IC50) was determined as 1100 nM.

With `CSc1nn2cc(-c3cc4cccc(F)c4o3)nc2s1` [Example 257], the IC50 was found to be 50.2 nM.

Consider `CCc1cc(OCc2cccc(OCc3ccccc3)c2)c2cc(-c3cn4nc(OC)sc4n3)oc2c1` [Example 411, 6-(4-((3-(Benzyloxy)benzyl)oxy)-6-ethylbenzofuran-2-yl)-2-methoxyimidazo[2,1-b][1,3,4]thiadiazole], for which the concentration for half-maximal inhibition (IC50) came out at 4.53 nM.

Consider `COc1nn2cc(-c3cc4c(OCc5cccc(OCc6ccccc6)c5)cc(C#N)cc4o3)nc2s1` [Example 417], for which the IC50 is 5.02 nM.

On to `CSc1nn2cc(-c3nc4cc(Cl)ccc4o3)nc2s1` [Example 125], for which the 50% inhibitory concentration (IC50) was found to be 206 nM.

On to `COc1nn2cc(-c3cc4c(O)cccc4o3)nc2s1` [Example 211, 2-(2-Methoxyimidazo[2,1-b][1,3,4]thiadiazol-6-yl)benzofuran-4-ol], for which the IC50 was determined as 111 nM.

Turning to `COc1ccc(COc2ccc3nc(-c4cn5nc(SC)sc5n4)oc3c2)cc1` [Example 170], the 50% inhibitory concentration (IC50) is 116 nM.

`COc1ccc2oc(-c3cn4nc(SC)sc4n3)c(C)c2c1` [Example 24]: the concentration for half-maximal inhibition (IC50) is 696 nM.

Regarding `COc1nn2cc(-c3nc4cc(F)c(F)cc4o3)nc2s1` [Example 138], the concentration for half-maximal inhibition (IC50) amounted to 470 nM.

As to `COc1ccc2nc(-c3cn4nc(SC)sc4n3)oc2c1` [Example 116, 6-Methoxy-2-(2-(methylthio)imidazo[2,1-b][1,3,4]thiadiazol-6-yl)benzo[d]oxazole], the half-inhibitory concentration (IC50) was found to be 6.63 nM.

Turning to `CSc1nn2cc(-c3nc4c(OC[C@H]5CCCN5C(=O)[C@H](NC(=O)OC(C)(C)C)c5ccccc5)cccc4o3)nc2s1` [Example 333, tert-Butyl ((R)-2-((R)-2-(((2-(2-(methylthio)imidazo[2,1-b][1,3,4]thiadiazol-6-yl)benzo[d]oxazol-4-yl)oxy)methyl)pyrrolidin-1-yl)-2-oxo-1-phenylethyl)carbamate], the half-maximal inhibitory concentration (IC50) is 566 nM.

In the case of `CSc1nn2cc(-c3nc4c(C)cccc4o3)nc2s1` [Example 128], the IC50 was 17.1 nM.

On to `COc1nn2cc(-c3cc4c(Cl)nccc4o3)nc2s1` [Example 223, 4-Chloro-2-(2-methoxyimidazo[2,1-b][1,3,4]thiadiazol-6-yl)furo[3,2-c]pyridine], for which the IC50 turned out to be 21.6 nM.

As to `CSc1nn2cc(-c3nc4c(OCc5ccc(C(F)(F)F)cc5)cccc4o3)nc2s1` [Example 155], the IC50 stood at 301 nM.

Broadly, the IC50 is the concentration that inhibits the measured activity by half.
